# From patent US20170150719A1, “FUNGICIDAL PYRAZOLES AND THEIR MIXTURES” (E I DU PONT DE NEMOURS AND COMPANY, priority 2010, published 2017)
# Marks after values point to notes of the source that are not given here.
# Tests used:
# Septoria tritici = test: Test F: wheat leaf blotch, preventive spray on wheat seedlings, visual disease rating; assay type: in vivo; parameters: Test F rating (disease control), value marked *: concentration or dose not given beside the values; conditions: for Test F rating (disease control): 100 = 100% disease control, 0 = no disease control relative to the controls; for Test F rating (disease control), value marked *: rating marked with asterisk (*), other test condition, not explained in the text shown
# Source text: (§1) A hyphen (-) indicates no test results.
# [1] = test system: Puccinia recondita f. sp. tritici; test: Test G: wheat leaf rust, spray after inoculation (curative) on wheat seedlings, visual disease rating; assay type: in vivo; conditions: sprayed after inoculation, 100 = 100% disease control, 0 = no disease control
# Source text: as §1
# Septoria nodorum = test: Test E: Septoria glume blotch, preventive spray on wheat seedlings, visual disease rating; conditions: Septoria glume blotch; 100 = 100% disease control, 0 = no disease control relative to the controls
# [2] = test system: Blumeria graminis f. sp. tritici; test: Test I: wheat powdery mildew, preventive spray on wheat seedlings, visual disease rating; conditions: wheat powdery mildew; for Test I rating (disease control): 100 = 100% disease control, 0 = no disease control relative to the controls; for Test I rating (disease control), value marked *: rating marked with asterisk (*), not explained in the text shown
# Experimental: (§2) General protocol for preparing test suspensions for Tests A-I: the test compounds were first dissolved in acetone in an amount equal to 3% of the final volume and then suspended at the desired concentration (in ppm) in acetone and purified water (50/50 mix by volume) containing 250 ppm of the surfactant Trem® 014 (polyhydric alcohol esters). The resulting test suspensions were then used in Tests A-I. Each test was conducted in triplicate, and the results were averaged. Spraying a 200 ppm test suspension to the point of run-off on the test plants was the equivalent of a rate of about 800 g/ha. Unless otherwise indicated, the rating values indicate a 200 ppm test suspension was used. (An asterisk “*” next to the rating value indicates a 40 ppm test suspension was used.)
# The test suspension was sprayed to the point of run-off on wheat seedlings. The following day the seedlings were inoculated with a spore dust of Blumeria graminis f. sp. tritici (also known as Erysiphe graminis f. sp. tritici, the causal agent of wheat powdery mildew) and incubated in a growth chamber at 20° C. for 8 days, after which time visual disease ratings were made.
# Botrytis cinerea = test: Test A: tomato Botrytis, preventive spray on tomato seedlings, visual disease rating; conditions: tomato Botrytis; 100 = 100% disease control, 0 = no disease control relative to the controls
# Alternaria solani = test: Test B: tomato early blight, preventive spray on tomato seedlings, visual disease rating; conditions: tomato early blight; 100 = 100% disease control, 0 = no disease control relative to the controls
# [3] = test system: Puccinia recondita f. sp. tritici; test: Test H: wheat leaf rust, preventive spray on wheat seedlings, visual disease rating; conditions: wheat leaf rust, sprayed the day before inoculation; 100 = 100% disease control, 0 = no disease control
# Experimental: as §2
# The test suspension was sprayed to the point of run-off on wheat seedlings. The following day the seedlings were inoculated with a spore suspension of Puccinia recondita f. sp. tritici (the causal agent of wheat leaf rust) and incubated in a saturated atmosphere at 20° C. for 24 h, and then moved to a growth chamber at 20° C. for 6 days, after which time visual disease ratings were made.
Compound,Test F rating (disease control) (Septoria tritici) [%],Test G rating (disease control) [1] [%],Test E rating (disease control) (Septoria nodorum) [%],Test I rating (disease control) [2] [%],Test A rating (disease control) (Botrytis cinerea) [%],Test B rating (disease control) (Alternaria solani) [%],Test H rating (disease control) [3] [%],"Test F rating (disease control), value marked * (Septoria tritici)","Test I rating (disease control), value marked * [2]"
COc1cc(F)c(Nc2c(-c3c(F)cccc3F)c(C)nn2C)c(F)c1 [compound 72],100,0,0,98,100,99,97,–,–
Cc1nn(C)c(Oc2c(F)cc(C#N)cc2F)c1-c1ccccc1Cl [compound 75],100,0,99,98,100,99,99,–,–
Cc1nn(C)c(Oc2c(F)cc(C#N)cc2F)c1-c1ccccc1Br [compound 76],99,0,99,99,100,97,99,–,–
COc1ccc(-c2c(C)nn(C)c2Nc2ccc(Cl)cc2Cl)c(Cl)c1 [compound 77],–,0,0,100,99,98,99,99* %,–
Cc1nn(C)c(Nc2ccc(Cl)cc2Cl)c1-c1c(F)cccc1Cl [compound 78],–,9,0,100,99,65,99,99* %,–
Cc1nn(C)c(Oc2ccc(C#N)cc2Cl)c1-c1ccc(F)cc1Br [compound 80],–,9,60,99,98,0,99,100* %,–
Cc1nn(C)c(Nc2c(F)cc(C#N)cc2F)c1-c1ccc(F)cc1F [compound 83],100,0,87,100,100,99,100,–,–
COc1cc(Cl)c(Nc2c(-c3ccc(F)cc3Cl)c(C)nn2C)c(Cl)c1 [compound 85],100,0,0,–,99,0,99,–,99* %
Cc1nn(C)c(Nc2c(F)cc(F)cc2Cl)c1-c1c(F)cccc1Cl [compound 87],100,0,87,100,100,93,100,–,–
Cc1nn(C)c(Nc2ccc(Cl)cc2Cl)c1-c1ccc(F)cc1Cl [compound 88],–,41,51,100,100,95,100,100* %,–
Cc1nn(C)c(Nc2c(F)cc(F)cc2F)c1-c1c(F)cccc1F [compound 89],100,9,82,100,100,99,99,–,–
Cc1nn(C)c(Nc2c(F)cc(C#N)cc2F)c1-c1c(F)cccc1F [compound 90],100,0,87,99,99,87,98,–,–
Cc1nn(C)c(Oc2c(F)cc(C#N)cc2F)c1-c1ccccc1F [compound 91],100,0,94,99,99,99,99,–,–
COc1ccc(-c2c(C)nn(C)c2Oc2ccc(C#N)cc2F)c(Cl)c1 [compound 92],100,0,99,96,100,99,99,–,–
COc1ccc(-c2c(C)nn(C)c2Oc2ccc(C#N)cc2Cl)c(Cl)c1 [compound 93],100,0,60,91,100,0,99,–,–
Cc1nn(C)c(Nc2ccc(F)cc2Br)c1-c1ccc(F)cc1Br [compound 95],100,91,51,100,100,97,100,–,–
Cc1nn(C)c(Nc2ccc(F)cc2Cl)c1-c1ccc(F)cc1Br [compound 96],100,94,0,100,100,95,100,–,–
Cc1nn(C)c(Nc2ccc(F)cc2F)c1-c1ccccc1Cl [compound 97],100,0,0,100,99,99,96,–,–
Cc1nn(C)c(Nc2c(Cl)cc(F)cc2Cl)c1-c1ccc(F)cc1Br [compound 98],99,9,0,96,99,0,99,–,–
COc1ccc(-c2c(C)nn(C)c2Oc2ccc(C#N)cc2Cl)c(Br)c1 [compound 99],100,0,0,89,99,0,97,–,–
COc1ccc(-c2c(C)nn(C)c2Oc2ccc(C#N)cc2F)c(Br)c1 [compound 100],100,0,100,95,92,88,99,–,–
COc1ccc(Nc2c(-c3ccc(F)cc3Cl)c(C)nn2C)c(Cl)c1 [compound 101],100,99,0,100,100,93,100,–,–
COc1cc(Cl)c(Nc2c(-c3ccc(F)cc3Br)c(C)nn2C)c(Cl)c1 [compound 102],98,0,0,–,98,0,94,–,95* %
COc1ccc(Nc2c(-c3ccc(F)cc3Br)c(C)nn2C)c(Cl)c1 [compound 103],100,63,0,99,99,83,99,–,–
CCOc1ccc(Nc2c(-c3ccc(F)cc3Cl)c(C)nn2C)c(Cl)c1 [compound 104],100,0,0,99,100,0,97,–,–
